This note sets out measurements from patent publication US20080021217A1, “HETEROCYCLIC INHIBITORS OF RHO KINASE” (priority 2006, published 2008).

The pIC50 is the negative decadic logarithm of the IC50, by convention in mol/L.

pIC50: −log10 of the molar value. Where a name gives a salt, the structure may show the parent alone. Bounds are passed on as bounds.

The test system of assay [1] is lasered (hypertensive) eyes of conscious cynomolgus monkeys. The assay can be described thus: Acute IOP response in lasered (hypertensive) eyes of conscious cynomolgus monkeys. Format: in vivo. Conditions: instilled in right eyes, IOP at 1, 3 and 6 hours; for Peak % Reduction in IOP vs. Control at 0.3%: compound at 0.3%; for Peak % Reduction in IOP vs. Control at 1.0%: compound at 1.0%. The source says:
Acute IOP Response in Lasered (Hypertensive) Eyes of Conscious Cynomolgus Monkeys
Intraocular pressure (IOP) can be determined with an Alcon Pneumatonometer after light corneal anesthesia with 0.1% proparacaine. Eyes are washed with saline after each measurement. After a baseline IOP measurement, test compound is instilled in one […] aliquot to the right eyes only of nine cynomolgus monkeys. Vehicle is instilled in the right eyes of six additional animals. Subsequent IOP measurements are taken at 1, 3, and 6 hours, and peak reduction in IOP is reported below in Table 2 as percent of IOP lowering versus the control for each of the given concentrations of compound.
A more detailed description of the assay used herein may be found in May et al., “Evaluation of the Ocular Hypotensive Response of Serotonin 5-HT1A and 5-HT2 Receptor Ligands in Conscious Ocular Hypertensive Cynomolgus Monkeys,” J. of Pharmacology and Experimental Therapeutics, vol. 306(1), pp. 301-309 (2003), the disclosure of which is hereby incorporated by reference as if written herein in its entirety.

The target in assay [2] is T1, recombinant N-terminal GST-tagged human Rho kinase 1 (ROCK1, amino acids 1-535) (Homo sapiens, UniProt Q13464).
T1 construct: ROCK1, amino acids 1-535, Invitrogen Inc., cat. #PV-3691; GST (N); purchased Invitrogen Inc. PV-3691
T1 sequence (Q13464 1-535): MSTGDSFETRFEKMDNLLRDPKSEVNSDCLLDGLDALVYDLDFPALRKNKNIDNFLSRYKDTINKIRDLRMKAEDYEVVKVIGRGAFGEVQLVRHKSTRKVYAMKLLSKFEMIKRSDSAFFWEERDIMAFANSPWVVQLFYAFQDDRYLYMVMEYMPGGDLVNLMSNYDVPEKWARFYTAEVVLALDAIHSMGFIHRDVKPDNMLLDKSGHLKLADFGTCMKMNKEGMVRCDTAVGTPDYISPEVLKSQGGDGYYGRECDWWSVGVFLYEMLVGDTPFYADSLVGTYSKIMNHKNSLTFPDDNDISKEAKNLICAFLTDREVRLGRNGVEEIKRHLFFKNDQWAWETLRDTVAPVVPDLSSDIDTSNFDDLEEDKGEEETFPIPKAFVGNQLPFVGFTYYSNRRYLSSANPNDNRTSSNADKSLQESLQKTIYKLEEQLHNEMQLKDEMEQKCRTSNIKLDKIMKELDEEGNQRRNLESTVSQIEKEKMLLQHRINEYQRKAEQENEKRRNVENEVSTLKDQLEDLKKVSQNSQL
The assay can be described thus: In vitro Rho kinase assay (luciferase-based ATP consumption), ROCK1. The assay is classed as biochemical. The method, then: (§1) Rho kinase biochemical assays described below depend on firefly luciferase-based, indirect measurement of total ATP consumption by the kinase following incubation with substrate and ATP. 25 μl of Rho kinase assay buffer (20 mM Tris-HCL [pH 7.5], 1 mM MgCl2, 0.4 mM CaCl2, 0.15 mM EGTA, 0.1 mg/ml bovine serum albumin) containing 0.82 μg/ml of recombinant N-terminal GST-tagged human Rho kinase 1 (ROCK1, amino acids 1-535, Invitrogen Inc., cat. #PV-3691) or recombinant N-terminal GST-tagged human Rho kinase 2 (ROCK2, amino acids 1-552, Invitrogen Inc., cat #PV3759), 100 μg/ml S6 peptide substrate (related to amino acids 218-249 of the human 40S ribosomal protein S6, and suitable for ROCK1 or ROCK2, e.g. Upstate/Millipore Inc., cat #12-420), and 3 µM ATP are dispensed to wells of a 384 multi-well opaque plate. The plate is centrifuged for 30 seconds at approximately 200×g. 240 nl of test compound in DMSO is dispensed to each well by passive pin transfer. The lag phase of this in vitro kinase reaction permits addition of compounds soon after the reaction initiates. The reaction is allowed to incubate at 30° C. for 2 hours. The assay plates are sealed and maintained in a humidified environment. After 2 hours, 25 μl of easyLite protein kinase assay reagent (Perkin-Elmer, Inc.) is dispensed. After an additional 10 minute incubation at room temperature (about 22° C.), luminescence activity is measured on a Molecular Devices Analyst multi-mode plate reader or other suitable plate reader. Kinase inhibition results in less ATP consumption, and therefore increased luminescence signal. Negative control activity is measured with DMSO lacking any test compound. The positive control is 2-methyl-1-(4-methylisoquinolin-5-ylsulfonyl)perhydro-1,4-diazepine hydrochloride (aka H-1152P, HCl salt). Efficacy is measured as a percentage of positive control activity. […] In some cases, kinase reactions and compound testing are performed in 1536 multi-well plates under similar conditions, with assay volumes appropriately scaled. The designated NT means the cited example was not tested.

Assay [3] has as its target T2, recombinant N-terminal GST-tagged human Rho kinase 2 (ROCK2, amino acids 1-552) (Homo sapiens, UniProt O75116).
T2 construct: ROCK2, amino acids 1-552, Invitrogen Inc., cat #PV3759; GST (N); purchased Invitrogen Inc. PV3759
The assay can be described thus: In vitro Rho kinase assay (luciferase-based ATP consumption), ROCK2. The assay is classed as biochemical. As for the experimental part:
as §1

T2 sequence (O75116 1-552): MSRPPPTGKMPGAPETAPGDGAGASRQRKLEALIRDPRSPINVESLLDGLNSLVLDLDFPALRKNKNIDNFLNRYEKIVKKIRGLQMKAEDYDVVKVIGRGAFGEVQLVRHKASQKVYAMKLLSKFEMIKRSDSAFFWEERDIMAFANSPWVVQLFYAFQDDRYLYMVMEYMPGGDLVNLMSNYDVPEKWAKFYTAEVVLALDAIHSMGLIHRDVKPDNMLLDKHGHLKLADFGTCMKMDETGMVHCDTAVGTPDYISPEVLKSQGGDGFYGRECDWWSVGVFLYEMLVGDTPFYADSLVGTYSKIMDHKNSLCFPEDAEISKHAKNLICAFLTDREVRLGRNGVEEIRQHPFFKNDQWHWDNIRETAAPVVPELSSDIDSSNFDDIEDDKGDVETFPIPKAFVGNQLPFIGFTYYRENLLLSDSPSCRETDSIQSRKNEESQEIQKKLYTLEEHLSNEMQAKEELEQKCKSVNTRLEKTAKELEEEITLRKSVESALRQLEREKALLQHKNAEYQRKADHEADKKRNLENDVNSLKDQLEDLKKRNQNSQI

`O=C(NCc1nc(-c2ccncc2)c[nH]1)c1ccc(O)cc1O` [Example 6, 2,4-dihydroxy-N-((4-(pyridin-4-yl)-1H-imidazol-2-yl)methyl)benzamide]: the “Peak % Reduction in IOP vs. Control at 0.3%” value (“Peak % Reduction … at 0.3%” below) in assay [1] was determined as 5.8%. Besides, the pIC50 in assay [2] and in assay [3] was over 5.30 in each case.
With `O=C(NCc1nc(-c2ccncc2)n[nH]1)c1ccc(O)cc1O` [Ex. 15 HCl, 2,4-dihydroxy-N-((3-(pyridin-4-yl)-1H-1,2,4-triazol-5-yl)methyl)benzamide], in assay [1], the “Peak % Reduction in IOP vs. Control at 1.0%” value is 8.8%.
With `Cc1cccc(C(=O)NCc2nc(-c3ccncc3)n[nH]2)c1O` [Example 22, 2-hydroxy-3-methyl-N-((3-(pyridin-4-yl)-1H-1,2,4-triazol-5-yl)methyl)benzamide], the “Peak % Reduction … at 0.3%” value in assay [1] came to 11.1%. The pIC50 in assay [2] and in assay [3] was over 5.30 in each case.
On to `O=C(NCc1nc(-c2ccncc2)n[nH]1)c1ccc(O)cc1O` [Example 15, 2,4-dihydroxy-N-((3-(pyridin-4-yl)-1H-1,2,4-triazol-5-yl)methyl)benzamide], for which, in assay [1], the “Peak % Reduction … at 0.3%” value amounted to 14.9% and the “Peak % Reduction in IOP vs. Control at 1.0%” value came out at 9.8%. In addition, the pIC50 in assay [2] is over 5.30. In addition, the pIC50 in assay [3] was over 5.30.
On to `CC(C)C(=O)Oc1ccc(C(=O)NCc2nc(-c3ccncc3)n[nH]2)c(O)c1` [Example 35, 3-Hydroxy-4-((3-(pyridin-4-yl)-1H-1,2,4-triazol-5-yl)methylcarbamoyl)phenyl isobutyrate], for which the “Peak % Reduction … at 0.3%” value in assay [1] came out at 8.6%. The negative-log IC50 (pIC50) in assay [2] and in assay [3] was over 5.30 each time.
Consider `Cc1cccc(C(=O)NCc2nc(-c3c[nH]c4ncccc34)n[nH]2)c1O` [Example 71, N-((3-(1H-pyrrolo[2,3-b]pyridin-3-yl)-1H-1,2,4-triazol-5-yl)methyl)-2-hydroxy-3-methylbenzamide], for which the pIC50 was over 5.30 in assay [2] and under 5.30 in assay [3].
Taken in the same sequence, the figures for `O=C(NCc1nc(-c2c[nH]c3ncccc23)cs1)c1cccs1` [Example 75, N-((4-(1H-pyrrolo [2,3-b]pyridin-3-yl)thiazol-2-yl)methyl)thiophene-2-carboxamide] were over 5.30 and over 5.30.
On to `Cc1cccc(C(=O)NCc2nc(-c3ccncc3)c[nH]2)c1O` [Example 7, 2-hydroxy-3-methyl-N-((4-(pyridin-4-yl)-1H-imidazol-2-yl)methyl)benzamide], for which, in assay [1], the “Peak % Reduction … at 0.3%” value worked out at 11.0%. Moreover, the pIC50 in assay [2] and in assay [3] was over 5.30 throughout.
In the case of `CC(=O)Oc1ccc(C(=O)NCc2nc(-c3ccncc3)n[nH]2)c(O)c1` [Example 36, 3-Hydroxy-4-((3-(pyridin-4-yl)-1H-1,2,4-triazol-5-yl)methylcarbamoyl)phenyl acetate], the “Peak % Reduction … at 0.3%” value in assay [1] was 8.4%. The pIC50 in assay [2] and in assay [3] was over 5.30 in each case.
In the case of `O=C(NCc1nc(-c2ccncc2)n[nH]1)c1cccc2cc[nH]c12` [Example 42, N-((3-(Pyridin-4-yl)-1H-1,2,4-triazol-5-yl)methyl)-1H-indole-7-carboxamide], the pIC50 in assay [2] and in assay [3] was over 5.30 throughout.
For the compound `O=C(NCc1nc(-c2c[nH]c3ncccc23)n[nH]1)c1cccs1` [Example 70, N-((3-(1H-pyrrolo[2,3-b]pyridin-3-yl)-1H-1,2,4-triazol-5-yl)methyl)thiophene-2-carboxamide], the pIC50 in assay [2] and in assay [3] was over 5.30 in each case.
`CC(NC(=O)c1cccs1)c1nc(-c2ccncc2)n[nH]1` (centres unmarked) [Example 65, N-(1-(3-(Pyridin-4-yl)-1H-1,2,4-triazol-5-yl)ethyl)thiophene-2-carboxamide]: the negative logarithm of the IC50 (pIC50) in assay [2] and in assay [3] was over 5.30 each time.
As for `O=C(NCc1nc(-c2ccncc2)n[nH]1)c1cccs1` [Example 16, N-((3-(pyridin-4-yl)-1H-1,2,4-triazol-5-yl)methyl)thiophene-2-carboxamide], the pIC50 in assay [2] and in assay [3] was over 5.30 each time.
In the case of `Cc1c(Cl)ccc(S(=O)(=O)NCc2nc(-c3ccncc3)n[nH]2)c1O` [Example 32, 4-Chloro-2-hydroxy-3-methyl-N-((3-(pyridin-4-yl)-1H-1,2,4-triazol-5-yl)methyl)benzenesulfonamide], the pIC50 in assay [2] and in assay [3] was under 5.30 in each case.
As to `O=S(=O)(NCc1nc(-c2ccncc2)n[nH]1)c1ccc(O)cc1` [Example 55, 4-Hydroxy-N-((3-(pyridin-4-yl)-1H-1,2,4-triazol-5-yl)methyl)benzenesulfonamide], the pIC50 in assay [2] and in assay [3] was under 5.30 throughout.
As for `Cc1csc(C(=O)NCc2nc(-c3ccncc3)n[nH]2)c1` [Example 48, 4-Methyl-N-((3-(pyridin-4-yl)-1H-1,2,4-triazol-5-yl)methyl)thiophene-2-carboxamide], the pIC50 in assay [2] and in assay [3] was over 5.30 in each case.
Turning to `CC(C)(C)C(=O)Oc1ccc(C(=O)NCc2nc(-c3ccncc3)n[nH]2)c(O)c1` [Example 39, 3-Hydroxy-4-((3-(pyridin-4-yl)-1H-1,2,4-triazol-5-yl)methylcarbamoyl)phenyl pivalate], the pIC50 in assay [2] is over 5.30; in assay [3], under 5.30.
Turning to `CC(C)(C)C(=O)Oc1ccc(C(=O)NCc2nc(-c3ccncc3)n[nH]2)cc1` [Example 38, 4-((3-(Pyridin-4-yl)-1H-1,2,4-triazol-5-yl)methylcarbamoyl)phenyl pivalate], the pIC50 in assay [2] and in assay [3] was under 5.30 each time.
Turning to `c1ccc2c(NCc3nc(-c4ccncc4)n[nH]3)n[nH]c2c1` [Example 59, N-((3-(Pyridin-4-yl)-1H-1,2,4-triazol-5-yl)methyl)-1H-indazol-3-amine], the pIC50 in assay [2] and in assay [3] was under 5.30 in each case.
